Like-named read-outs stand apart in the source and are kept apart here.

One series has as its system HCT116 cells. The experiment in a line: HCT116 cytological activity in vitro (3D CellTiter-Glo proliferation). Format: cell-based, human. Conditions: 5 days culture, ultra-low adsorption plates. The procedure: McCoy's 5A medium, penicillin/streptomycin antibiotics was purchased from Vicente, and fetal bovine serum was purchased from Biosera. 3D CellTiter-Glo (cell viability chemiluminescence assay reagent) reagent was purchased from Promega. HCT116 cell line was purchased from Nanjing Cobioer Biosciences Co., Ltd. Envision multimode microplate reader (PerkinElmer).
HCT116 cells were seeded in ultra-low adsorption 96-well U-plates, 80 μL of cell suspension per well, which contained 1000 HCT116 cells. Cell plates were cultured overnight in a carbon dioxide incubator.
The compound to be tested was 5-fold diluted to the 9th concentration with a pipette, that is, diluted from 2 mM to 5.12 nM, and a double-well experiment was set up. 78 μL of medium was added to the intermediate plate, and then 2 μL of each well of the gradient diluted compound was transferred to the intermediate plate according to the corresponding position, 20 μL of each well was transferred to the cell plate after mixing well. Compound concentrations transferred to cell plates ranged from 10 μM to 0.0256 nM. Cell plates were cultured in a carbon dioxide incubator for 5 days. Another cell plate was prepared, and the signal value was read as the maximum value (Max value in the following equation) on the day of drug addition to participate in data analysis.
Every 100 μL of cell viability chemiluminescent detection reagent was added to the cell plate, and incubated at room temperature for 10 minutes to stabilize the luminescent signal. A multimode microplate reader was used to read.
The equation (Sample−Min)/(Max−Min)*100% was used to convert the original data into an inhibition rate, and the value of IC50 can be obtained by curve fitting with four parameters (“log(inhibitor) vs. response in GraphPad Prism—Variable slope” mode). Table 3 provides the inhibitory activity of the compounds of the present disclosure against the proliferation of HCT116 cells.

For series [1], the target named is human PLK1 protein kinase (Homo sapiens (Human), UniProt P53350). The series can be described thus: PLK1 kinase activity in vitro, 33P isotope-labeled kinase activity assay. Format: biochemical. The following applies: 33P-ATP 30 μM, substrate Casein, PLK1 12 nM. The procedure:
The ^33P isotope-labeled kinase activity assay (Reaction Biology Corp) was used to determine the IC50 value to evaluate the inhibitory ability of the test compound to human PLK1 protein kinase.
Buffer conditions: 20 mM HEPES (pH 7.5), 10 mM MgCl2, 1 mM EGTA, 0.01% Brij35, 0.02 mg/ml BSA, 0.1 mM Na3VO4, 2 mM DTT, 1% DMSO
Test steps: At room temperature, the compounds to be tested were dissolved in DMSO to prepare a 10 mM solution for use. The substrate Casein was dissolved in a freshly prepared buffer (with a final concentration of 20 μM), and the tested PLK1 kinase (with a final concentration of 12 nM) was added thereto and mixed well. The acoustic wave pipetting system Echo 550 was used to add the mother solution of the test compound dissolved in DMSO to the above mixed reaction mixture according to the set final concentration gradient (the highest final concentration was 1 μM, 3-fold dilution, 10 gradients). After incubation at room temperature for 20 minutes, ^33P-ATP (30 μM) was added, and after incubation at room temperature for 120 minutes, the reaction mixture was spotted on P81 ion exchange filter paper (Whatman #3698-915).

Series [2] concerns KRAS-mutant mCRC patients. The following applies: cited from earlier work.
A short description of series [3]: Pharmacokinetic study in CD-1 male mice by oral administration and intravenous injection. The class given is in vivo. Conditions: for Cmax: read-out: Peak concentration Cmax; for Vd: read-out: Apparent volume of distribution Vdss; for AUC(0-t): read-out: Area under the plasma concentration-time curve AUC0-24 h; for clearance: read-out: Clearance CL; for half-life: read-out: Half-life T½ (converted); for Tmax: read-out: Peak time Tmax; for bioavailability: read-out: Bioavailability F. The text has this: The purpose of this experiment is to study the pharmacokinetics of the test compound in the plasma of CD-1 male mice after intravenous injection and oral administration.
Intravenous injection group: an appropriate amount of the test compound was weighed and dissolved in 20% SBE-b-CD aqueous solution and the pH was adjusted to 4 to 5 with 6 M hydrochloric acid, and the mixture was vortexed for 2, minutes to obtain a clear solution, and then pH was adjusted around 7 with 5 N sodium hydroxide, and the mixture was vortexed for 1 minute to prepare a 1.5 mg/mL clear solution, which was filtered through a 0.22 μm microporous membrane for later use. CD-1 male mice from 6 to 10 weeks old were selected and given a solution of the test compound intravenously. Samples were collected at 0.083, 0.25, 0.5, 1, 2, 4, 6, 8, and 24 hours.
Oral administration group: an appropriate amount of the test compound was weighed and dissolved in 20% SBE-b-CD aqueous solution, and the pH was adjusted to 3 to 4 with 6 M hydrochloric acid, and the mixture was vortexed for 2, minutes to obtain a clear solution, and then pH was adjusted around 7 with 5 N sodium hydroxide, and mixture was vortexed for 1 minute to prepare a 2.0 mg/mL clear solution for later use. CD-1 male mice between 6 and 10 weeks of age were selected and given the test compounds orally. Samples were collected at 0.25, 0.5, 1, 2, 4, 6, 8, 10, and 24 hours.
Approximately 50 μL of whole blood was collected through the jugular vein at each time point for plasma preparation for concentration determination by high performance liquid chromatography-tandem mass spectrometry (LC-MS/MS). All animals were euthanized under CO2 anesthesia after collecting the PK samples at the last time point. The plasma concentration was processed using the non-compartmental model of WinNonlin™ Version 6.3 (Pharsight, Mountain View, CA) pharmacokinetic software, and the pharmacokinetic parameters were calculated using the linear logarithmic trapezoidal method, and the experimental results are shown in Table 4.

The test system of series [4] is human colon cancer HCT116 cells subcutaneous xenograft tumor. The series can be described thus: In vivo pharmacodynamic study, subcutaneous xenograft tumor model of human colon cancer HCT116 cells. The arrangement: species or system BALB/c Nude mouse. The following applies: 60 mg/kg PO QD (5 days on, 2 days off), tumor volume on day 22 after dosing. The procedure:
In this experiment, human colon cancer HCT116 cells were subcutaneously transplanted into BALB/c Nude mouse model to evaluate the antitumor effect of the test compound in vivo.
HCT116 cell culture: 10% fetal calf serum was added to McCoy's 5A medium and cultured in 37° C. 5% CO2 cell incubator. When the cell saturation reached 80% to 90% and the number reached the requirement, cells were collected, counted and inoculated subcutaneously into BALB/c Nude mice (female, 6 to 7 weeks old)
When the tumors grew to a certain size, the animals with tumor volumes that were too large, too small, or with irregular tumor shapes were eliminated, and animals with tumor volumes ranging from 103.12 to 174.35 mm^3 were selected. According to the tumor volume, the animals were divided into 6 groups by random block method, and each group was composed of 6 mice wherein the average volume of the tumor was about 147.12 mm^3 , and the experimental grouping and dosing regimen were shown in Table 5 below. The health status and death of the animals were monitored every day. Routine inspections included observation of tumor growth and the effects of drug treatment on the daily behavior of the animals, such as behavioral activities, food and water intake, body weight changes (measured twice a week), tumor size (tumor volume was measured twice a week), appearance signs or other abnormal conditions.
The formula for calculating tumor volume (TV) was: ½×a×b^2, where a and b were the measured length and width of the tumor, respectively. The formula for calculating the tumor inhibition rate TGI (%) was: TGI (%)=[1−(average tumor volume at the end of administration of a certain treatment group−average tumor volume at the beginning of administration of this treatment group)/(average tumor volume at the end of treatment of the solvent control group−average tumor volume at the beginning of treatment in solvent control group)]×100%.
In this study, the experimental data were expressed as Mean±SEM. Statistical analysis was based on the data of RTV at the end of the experiment using IBM SPSS Statistics software. The comparison between two groups was analyzed by T test, and the comparison between three or more groups was analyzed by one-way ANOVA. If the variances were homogeneous (the F value had no significant difference), the Tukey's method was used for analysis. If the variances were not homogeneous (the F value had significant differences), and the Games-Howell method was used for testing. p<0.05 was considered as a significant difference.
(A xenograft is tissue or cells of one species grown in another, often human tumour cells in immunodeficient mice.)

human PLK1 protein kinase, sequence (P53350 whole entry): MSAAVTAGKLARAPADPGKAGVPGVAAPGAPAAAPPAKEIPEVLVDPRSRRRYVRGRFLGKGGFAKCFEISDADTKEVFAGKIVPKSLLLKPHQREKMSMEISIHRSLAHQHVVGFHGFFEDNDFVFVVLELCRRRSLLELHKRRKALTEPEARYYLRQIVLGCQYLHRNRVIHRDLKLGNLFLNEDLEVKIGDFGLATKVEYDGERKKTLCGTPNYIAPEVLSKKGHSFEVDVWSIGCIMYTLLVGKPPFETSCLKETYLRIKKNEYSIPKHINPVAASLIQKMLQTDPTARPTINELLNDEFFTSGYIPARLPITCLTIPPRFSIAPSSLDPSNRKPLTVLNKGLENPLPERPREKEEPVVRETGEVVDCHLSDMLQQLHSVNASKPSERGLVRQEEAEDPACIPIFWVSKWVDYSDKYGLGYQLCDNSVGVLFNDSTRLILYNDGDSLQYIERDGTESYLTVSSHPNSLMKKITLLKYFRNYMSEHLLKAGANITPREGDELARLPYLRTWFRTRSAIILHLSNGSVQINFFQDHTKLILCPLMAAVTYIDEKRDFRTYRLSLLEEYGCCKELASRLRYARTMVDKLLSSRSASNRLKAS

Consider `COc1nnc(N2CCN(C)CC2)cc1Nc1ncc2c(n1)-c1c(SC)sc(C(N)=O)c1CC2` [Compound 17], for which, in the series on HCT116 cells (Homo sapiens, HCT-116, 120 h), the midpoint of inhibition, the IC50, lay at 0.0183 µM.
For the compound `CN1CCN(c2ccc(OC(F)(F)F)c(Nc3ncc4c(n3)-c3c(CCO)sc(C(N)=O)c3CC4)c2)CC1` [Compound 6], the IC50 – broadly, the point on the concentration scale where inhibition reaches its midpoint – in series [1] was determined as 0.0069 µM.
`CSc1sc(C(N)=O)c2c1-c1nc(Nc3cc(N4CCN(C)CC4)ccc3OC(F)F)ncc1CC2` [Compound 4]: the values for the IC50 (with HCT116 cells; in series [1]) were 0.035 µM and 0.001 µM, respectively.
In turn, `CN1CCN(c2ccc(OC(F)(F)F)c(Nc3ncc4c(n3)-c3c(C5CC5)sc(C(N)=O)c3CC4)c2)CC1` [Compound 16] registered a half-inhibitory concentration (IC50) in the series with HCT116 cells (Homo sapiens, HCT-116, 120 h) of 0.0292 µM.
With `CSc1sc(C(N)=O)c2c1-c1nc(Nc3cc(N4CC5CC(C4)N5C)ccc3OC(F)(F)F)ncc1CC2` [Compound 15], the IC50 in series [1] was determined as 0.0064 µM.
As for `CN1CCN(c2ccc(OC(F)(F)F)c(Nc3ncc4c(n3)-c3c(-c5ccco5)sc(C(N)=O)c3CC4)c2)CC1` [Compound 20], inhibition in the series on HCT116 cells (Homo sapiens, HCT-116, 120 h) was half-maximal at 0.0586 µM (IC50).
For `CN1CCN(c2ccc(OC(F)(F)F)c(Nc3ncc4c(n3)-c3c(c(C(N)=O)nn3CCO)CC4)c2)CC1` [Onvansertib], the “safety profile in clinical studies” value in series [2] (clinical studies) is given as “acceptable safety profile”. Also, the clinical benefit in series [2] (share of KRAS-mutant mCRC patients, early clinical research) is 88%.
On to `CN1CCN(c2ccc(OC(F)(F)F)c(Nc3ncc4c(n3)-c3c(OC5CC5)sc(C(N)=O)c3CC4)c2)CC1` [Compound 18], for which, in series [3] (IV, 1.1 mg/kg, plasma), the “Apparent volume of distribution Vdss” value was 2.38 L/kg, the “Area under the plasma concentration-time curve AUC0-24 h” value was determined as 940 nM·h, the “Clearance CL” value is 1.88 L/h/kg and the “Half-life T½” value is 73.2 min. Further, the “Bioavailability F” value in series [3] (PO 3.4 mg/kg vs IV 1.1 mg/kg) came out at 82.5%. In series [3] (PO, 3.4 mg/kg, plasma), the “Area under the plasma concentration-time curve AUC0-24 h” value worked out at 2129 nM·h, the “Peak time Tmax” value was found to be 60 min and the Cmax was 0.688 µM. Further, in the series on HCT116 cells, the IC50 amounted to 0.0745 µM. For the same compound, in series [1], the IC50 came to 0.0043 µM.
Turning to `CSc1sc(C(N)=O)c2c1-c1nc(Nc3cc(N4CCN(C)CC4)ncc3OC(F)(F)F)ncc1CC2` [Compound 5], the midpoint of inhibition in series [1], the IC50, lay at 0.0026 µM.
In series [1], `CN1CCN(c2ccc(OC(F)(F)F)c(Nc3ncc4c(n3)-c3c(C#N)sc(C(N)=O)c3CC4)c2)CC1` [Compound 13] yielded an IC50 of 0.0049 µM.
On the same count and under the same terms, the figure for `CN1CCN(c2ccc(OC(F)(F)F)c(Nc3ncc4c(n3)-c3c(SCCO)sc(C(N)=O)c3CC4)c2)CC1` [Compound 3] is 0.005 µM.
Consider `CCOc1sc(C(N)=O)c2c1-c1nc(Nc3cc(N4CCN(C)CC4)ccc3OC(F)(F)F)ncc1CC2` [Compound 2], for which, in series [3] (mouse, IV, 1.0 mg/kg, plasma), the Vd stood at 2.89 L/kg, the AUC(0-t) is 624 nM·h, the clearance was 2.87 L/h/kg and the half-life (commonly the time needed for the level to fall by half in the phase considered) was 69 min. In series [3] (mouse, PO, 3.0 mg/kg, plasma), the AUC(0-t) came to 1020 nM·h; the Cmax worked out at 0.478 µM; the Tmax – broadly, the time from dosing to the highest level – was determined as 45 min. In addition, the bioavailability – broadly, dose-corrected exposure relative to a reference, in per cent – in series [3] (mouse, plasma, PO 3.0 mg/kg vs IV 1.0 mg/kg) was 54.2%. The TGI (as a rule, the reduction of tumour growth relative to the control group) in series [4] turned out to be 72.5%. Besides, the IC50 in the series on HCT116 cells (Homo sapiens, HCT-116, 120 h) came out at 0.0308 µM.
`CSc1sc(C(=O)NO)c2c1-c1nc(Nc3cc(N4CCN(C)CC4)ccc3OC(F)(F)F)ncc1CC2` [Compound 23] showed an IC50 in the series on HCT116 cells (Homo sapiens, HCT-116, 120 h) of 0.072 µM.
Turning to `CSc1sc(C(N)=O)c2c1-c1nc(Nc3cc(N4CCN(CCO)CC4)ccc3OC(F)(F)F)ncc1CC2` [Compound 8], in series [3] (mouse, IV, 0.5 mg/kg, plasma), the Vd was determined as 2.04 L/kg, the AUC(0-t) was 374 nM·h, the clearance was 2.24 L/h/kg and the half-life is 44.4 min. For the same compound, in series [3] (mouse, PO, 2.2 mg/kg, plasma), the AUC(0-t) was 459 nM·h, the Cmax is 0.157 µM and the Tmax is 45 min. For the same compound, the bioavailability in series [3] (mouse, plasma, PO 2.2 mg/kg vs IV 0.5 mg/kg) was determined as 30.9%. This compound had a TGI in series [4] of 85.4%. This compound also had an IC50 with HCT116 cells (Homo sapiens, HCT-116, 120 h) of 0.052 µM.
